Data reported in patent US20240190862A1 (AMGEN INC., priority 2019, published 2024).
Read-outs that look alike come from different tables or passages of the source.

Tests used:
[1] = biological target: GDP-bound KRAS protein (aa 1-169) G12C/C118A (Homo sapiens (Human), UniProt P01116, C118A/G12C); assay: Coupled Nucleotide Exchange Assay (KRAS G12C); assay type: biochemical
Method: (§1) Coupled Nucleotide Exchange Assay: Purified GDP-bound KRAS protein (aa 1-169), containing either G12C or G12D, as well as C118A amino acid substitutions and an N-terminal His-tag, was pre-incubated in assay buffer (25 mM HEPES pH 7.4, 10 mM MgCl2, and 0.01% Triton X-100) with a compound dose-response titration for either 5 min or 20 hours (see Table 15). Following compound pre-incubation, purified SOS protein (aa 564-1049) and GTP (Roche 10106399001) were added to the assay wells and incubated for an additional 30 min. To determine the extent of inhibition of SOS-mediated nucleotide exchange, purified GST-tagged cRAF (aa 1-149), nickel chelate AlphaLISA acceptor beads (PerkinElmer AL108R), and AlphaScreen glutathione donor beads (PerkinElmer 6765302) were added to the assay wells and incubated for 10 minutes. The assay plates were then read on a PerkinElmer EnVision Multilabel Reader, using AlphaScreen® technology, and data were analyzed using a 4-parameter logistic model to calculate IC50 values.

[2] = biological target: GDP-bound KRAS protein (aa 1-169) G12D/C118A (Homo sapiens (Human), UniProt P01116, C118A/G12D); assay: Coupled Nucleotide Exchange Assay (KRAS G12D); assay type: biochemical; conditions: 20 h compound pre-incubation; read-out: GDP KRAS G12D 20 h Coupled Exchange IC50 IP
Sequence of GDP-bound KRAS protein (aa 1-169) G12D/C118A (P01116 other isoform, or with tags, fused parts or gaps G12D/C118A): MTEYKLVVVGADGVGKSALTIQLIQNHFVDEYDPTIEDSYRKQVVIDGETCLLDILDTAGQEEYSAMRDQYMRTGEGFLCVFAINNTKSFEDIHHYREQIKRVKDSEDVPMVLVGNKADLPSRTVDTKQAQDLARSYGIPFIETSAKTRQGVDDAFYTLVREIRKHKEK
Method: as §1

GDP-KRAS G12D = GDP-KRAS G12D (Homo sapiens, UniProt P01116, C118A/G12D); assay: GDP-KRAS G12D RF-MS Assay; assay type: binding; conditions: 100 μM inhibitor, 20 h incubation, 2 uM KRAS G12D
Method: GDP-KRAS G12D RF-MS Assay: MS assays were performed in the following buffer: 25 mM HEPES pH 7.4, 20 mM MgCl2, 10 mM NaCl, 3% DMSO, 0.0005% CHAPS with 100 μM GDP made fresh and added to the assay buffer. The final concentration of KRAS G12D was 2 uM. Assay incubation times were 20 h and the inhibitor concentration was 100 μM. Greiner polypropylene clear V-bottom plates were used for the mass spectrometry assays. Typically, the reaction was initiated by addition of KRAS G12D to a well containing inhibitor followed by Rapidfire MS analysis. Relative % Bound values at the various incubation times were used to estimate a kobs value at 100 uM inhibitor.
RapidFire Sample Liquid handling System: The RapidFire liquid handling unit used was the RF 360 model. Solvents were delivered by Agilent 1260 Infinity pumps. The instrument control software was the Agilent RapidFire High Throughput MS-system software (v4.0.12333.14274). A single C4 Type A (Agilent technologies, G9203) SPE-cartridge was used for these experiments. A volume of 10 μL (sample loop determined) was removed from each well of a 384-well plate by using an aspiration time of 300 ms. The sample load/wash time was 6000 ms at a flow rate of 1.25 mL/min (H2O, 0.1% v/v formic acid, 0.05% v/v trifluoroacetic acid); elution time was 7000 ms (acetonitrile, 0.1% v/v formic acid, 0.05% v/v trifluoroacetic acid); re-equilibration time was 700 ms at a flow rate of 1.25 mL/min (H2O, 0.1% v/v formic acid, 0.05% v/v trifluoroacetic acid).
Mass Spectrometry: Mass spectrometric data was acquired on an Agilent 6530 quadrupole time-of-flight (ToF) MS system, operated with a dual Agilent Jet Spray (AJS) ion source, in positive ionization mode. The instrument parameters were as follows: gas temperature 350° C.; drying gas 5 L/min; nebulizer 60 psi; sheath gas 350° C.; sheath gas flow 11 L/min; capillary 3.5 kV (0.037 μA); nozzle 1.75 kV; fragmentor 200 V; skimmer 75 V; octapole RF 800 V peak-to-peak. Data was acquired at the rate of 5 spectra/s. The mass scale was calibrated using the Agilent positive ion tune mix, over the m/z range 300-3200. The instrument control software was Agilent MassHunter Workstation Data Acquisition (vB.05.01).
Mass Spectrometry Data Processing and Informatics: All data processing was performed using a HP Z620, 64-bit, 12-processor, Windows 7 PC, using a combination of Agilent MassHunter Qualitative Analysis (B.05.00) Agilent RapidFire control software (v4.0.12333.14070) and the Agilent DA Reprocessor Offline Utilities B.05.00, Build 162. The SPE-MS data acquired from the RapidFire-MS system is typically a single SPE-MS data file composed of multiple injection events. For effective charge state extraction, SPE-peak integration and subsequent MS-spectral deconvolution, the single SPE-MS data file is split into single injection events. This is typically performed off-line and achieved through the RapidFire User Interface software, using the Agilent RapidFire control software (v4.0.12333.14070) using the Convert MS Data option. Once the individual injection-event MS-data files have been produced, they are all batch processed using the DA Reprocessor Offline Utilities (B.05.00, Build 162, Agilent). For batch processing a method file was created using Agilent MassHunter Qualitative Analysis B.05.00. The details of this method file are contained within the BioConfirm Workflow and are as follows: Integrate (MS), Integrator Selection: General, smooth option selected; detector point sampling 1; start threshold 5.0; stop threshold 0.0; filtering 5 point; peak location, top. Extract (MS): Peak Spectrum Extraction (MS) within m/z 800-1400. Deconvolute (MS) Maximum Entropy: mass range 19,000-21,000 Daltons; Mass step 1.0 Da; S/N threshold 20.0; Use limited m/z range 800-1400; adduct proton; isotope peak width automatic; minimum consecutive charge states 5. […]

[3] = 5 min compound pre-incubation, read-out: GDP KRAS G12C 5 min Coupled Exchange IC50 IP
[4] = 20 h compound pre-incubation, read-out: GDP KRAS G12C 20 h Coupled Exchange IC50 IP

Sequence of GDP-bound KRAS protein (aa 1-169) G12C/C118A (P01116 other isoform, or with tags, fused parts or gaps G12C/C118A): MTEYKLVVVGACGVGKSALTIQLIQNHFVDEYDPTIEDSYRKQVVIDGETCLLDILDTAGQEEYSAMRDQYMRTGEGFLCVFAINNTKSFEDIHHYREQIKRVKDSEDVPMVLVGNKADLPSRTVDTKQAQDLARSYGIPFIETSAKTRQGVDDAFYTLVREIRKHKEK

SMILES | IC50 [1, 3] [nM] | IC50 [1, 4] [nM] | IC50 [2] [µM] | GDP-KRAS G12D RF-MS 100 μM 20 h Relative % Bound (GDP-KRAS G12D) [%]
Cc1ccnc(C(C)C)c1-n1c(=O)nc(N2CCN(C(=O)[C@H]3CO3)C[C@@H]2C)c2cc(Cl)c(-c3ccccc3F)nc21 (atropisomer, axis not shown) [Example 16, 6-Chloro-7-(2-fluorophenyl)-1-(2-isopropyl-4-methylpyridin-3-yl)-4-((S)-2-methyl-4-((R)-oxirane-2-carbonyl)piperazin-1-yl)pyrido[2,3-d]pyrimidin-2(1H)-one] | 3780 | 27 | 190 | 3.4
Cc1ccnc(C(C)C)c1-n1c(=O)nc(N2CCC3C2CN3C(=O)C2CO2)c2cc(Cl)c(-c3ccccc3F)nc21 (stereo not drawn) [Example 28, 6-Chloro-7-(2-fluorophenyl)-1-(2-isopropyl-4-methylpyridin-3-yl)-4-(6-(oxirane-2-carbonyl)-2,6-diazabicyclo[3.2.0]heptan-2-yl)pyrido[2,3-d]pyrimidin-2(1H)-one] | 193000 | 647 | > 250 | 
Cc1ccnc(C(C)C)c1-n1c(=O)nc(N(C)C2CN(C(=O)C3CO3)C2)c2cc(Cl)c(-c3ccccc3F)nc21 (stereo not drawn) [Example 29] | 13800 | 227 | > 250 | 
Cc1ccnc(C(C)C)c1-n1c(=O)nc(N(C)C2CN(C(=O)[C@H]3CO3)C2)c2cc(Cl)c(-c3ccccc3F)nc21 [Example 30, (R)-6-chloro-7-(2-fluorophenyl)-1-(2-isopropyl-4-methylpyridin-3-yl)-4-(methyl(1-(oxirane-2-carbonyl)azetidin-3-yl)amino)pyrido[2,3-d]pyrimidin-2(1H)-one] | > 250000 | > 31300 | > 250 | 1.4
Cc1ccnc(C(C)C)c1-n1c(=O)nc(NC2CN(C(=O)C3CO3)C2)c2cc(Cl)c(-c3ccccc3F)nc21 (stereo not drawn) [Example 31, 6-Chloro-7-(2-fluorophenyl)-1-(2-isopropyl-4-methylpyridin-3-yl)-4-((1-(oxirane-2-carbonyl)azetidin-3-yl)amino)pyrido[2,3-d]pyrimidin-2(1H)-one] | 146000 | 1570 | > 250 | 2.2
Cc1ccnc(C(C)C)c1-n1c(=O)nc(N[C@@H]2CCN(C(=O)C3CO3)C2)c2cc(Cl)c(-c3ccccc3F)nc21 (stereo partly drawn) [Example 32, 6-Chloro-7-(2-fluorophenyl)-1-(2-isopropyl-4-methylpyridin-3-yl)-4-(((3R)-1-(oxirane-2-carbonyl)pyrrolidin-3-yl)amino)pyrido[2,3-d]pyrimidin-2(1H)-one] | 101000 | 1850 | > 250 | 3.1
Cc1ccnc(C(C)C)c1-n1c(=O)nc(N2CCCC3C2CN3C(=O)C2CO2)c2cc(Cl)c(-c3ccccc3F)nc21 (stereo not drawn) [Example 33, 6-Chloro-7-(2-fluorophenyl)-1-(2-isopropyl-4-methylpyridin-3-yl)-4-(7-(oxirane-2-carbonyl)-2,7-diazabicyclo[4.2.0]octan-2-yl)pyrido[2,3-d]pyrimidin-2(1H)-one] | 60900 | 261 | > 250 | 2
Cc1ccnc(C(C)C)c1-n1c(=O)nc(N2CCC[C@H](NC(=O)C3CO3)C2)c2cc(Cl)c(-c3ccccc3F)nc21 (stereo partly drawn) [Example 34, N—((S)-1-(6-Chloro-7-(2-fluorophenyl)-1-(2-isopropyl-4-methylpyridin-3-yl)-2-oxo-1,2-dihydropyrido[2,3-d]pyrimidin-4-yl)piperidin-3-yl)oxirane-2-carboxamide] | > 250000 | > 250000 | > 250 | 2.9
Cc1ccnc(C(C)C)c1-n1c(=O)nc(N2CC[C@H](NC(=O)C3CO3)C2)c2cc(Cl)c(-c3ccccc3F)nc21 (stereo partly drawn) [Example 35, N—((S)-1-(6-chloro-7-(2-fluorophenyl)-1-(2-isopropyl-4-methylpyridin-3-yl)-2-oxo-1,2-dihydropyrido[2,3-d]pyrimidin-4-yl)pyrrolidin-3-yl)oxirane-2-carboxamide] | 167000 | 1360 | > 250 | 3.4
Cc1ccnc(C(C)C)c1-n1c(=O)nc(N2C[C@@H](C)N(C(=O)[C@H]3CO3)C[C@@H]2C)c2cc(Cl)c(-c3c(O)cccc3F)nc21 [Example 36, 6-Chloro-4-((2S,5R)-2,5-dimethyl-4-((R)-oxirane-2-carbonyl)piperazin-1-yl)-7-(2-fluoro-6-hydroxyphenyl)-1-(2-isopropyl-4-methylpyridin-3-yl)pyrido[2,3-d]pyrimidin-2(1H)-one] | 653 | 24 | > 250 | 8.1
Cc1ccnc(C(C)C)c1-n1c(=O)nc(N2C[C@@H](C)N(C(=O)[C@H]3CO3)C[C@@H]2C)c2cc(Cl)c(-c3c(N)cccc3F)nc21 [Example 37, 7-(2-Amino-6-fluorophenyl)-6-chloro-4-((2S,5R)-2,5-dimethyl-4-((R)-oxirane-2-carbonyl)piperazin-1-yl)-1-(2-isopropyl-4-methylpyridin-3-yl)pyrido[2,3-d]pyrimidin-2(1H)-one] | 560 | 15 | > 250 | 15.8
